Assay results: patent US8592469B2, “Diazonamide analogs” (Joyant Pharmaceuticals, Inc., priority 2012, dated 2013)

Legend:
[1] = tested on: A2058 cells; experiment: Cell viability assay (Cell-Titer-Glo) in A2058 cells; format: cell-based; conditions: Homo sapiens, 48 hour treatment, test compounds 1 nM to 1 μM
Protocol: (§1) Cell viability assays were run using standard protocols known to those of skill in art. Cells were plated in 96 well plates at the density of 3,000-10,000 cells per well. Twenty four hours later, cells were treated with increasing concentration of test compounds (1 nM to 1 μM). After another 48 hour, cell survival was measured using Cell-Titer-Glo® reagent (Promega) following the protocol provided by the manufacture. The IC50 value was determined as the concentration of test compound that kills 50% of the cell population.
(§2) Cell viability data generated according to the protocol described above was generated for representative compounds in A2058 and U937 cells. The compounds shown in Table 1 were prepared by the methods described herein for structurally similar compounds. The reference compound was a synthetic diazonamide analog having the structure: […]

[2] = tested on: U937 cells; experiment: Cell viability assay (Cell-Titer-Glo) in U937 cells; format: cell-based; conditions: Homo sapiens, U-937, 48 hour treatment, test compounds 1 nM to 1 μM
Protocol: as §1, §2

## CCC(O)(CC)C(=O)N[C@H]1Cc2ccc3c(c2)C2(C4=C(c5nc(C(=O)OC)co5)N=C(O4)[C@H](C(C)(C)C)NC1=O)c1ccccc1N[C@H]2O3 (stereo partly drawn) [Compound 63]
[1]
  IC50: 15.5 nM
[2]
  IC50: 1.97 nM

## CCC(O)(CC)C(=O)N[C@H]1Cc2ccc3c(c2)C2(C4=C(c5nc(CO)co5)N=C(O4)[C@H](C(C)(C)C)NC1=O)c1ccccc1N[C@H]2O3 (stereo partly drawn) [Compound 64]
[1]
  IC50: 43.2 nM
[2]
  IC50: 45.9 nM

## CCC(O)(CC)C(=O)N[C@H]1Cc2ccc3c(c2)C2(C4=C(c5nc(C#N)co5)N=C(O4)[C@H](C(C)(C)C)NC1=O)c1ccccc1N[C@H]2O3 (stereo partly drawn) [Compound 65]
[1]
  IC50: 16.8 nM
[2]
  IC50: 67.6 nM

## CC(C)=CC(=O)N[C@H]1Cc2ccc3c(c2)C2(C4=C(c5nc(C#N)co5)N=C(O4)[C@H](C(C)(C)C)NC1=O)c1ccccc1N[C@H]2O3 (stereo partly drawn) [Compound 66]
[1]
  IC50: 186 nM
[2]
  IC50: 215 nM

## CC(C)C[C@H](O)C(=O)NC1Cc2ccc3c(c2)C2(C4=C(c5nc(C#N)co5)N=C(O4)[C@H](C(C)(C)C)NC1=O)c1ccccc1N[C@H]2O3 (stereo partly drawn) [Compound 67]
[1]
  IC50: 35.8 nM
[2]
  IC50: 89.7 nM

## CCC(C)(O)C(=O)N[C@H]1Cc2ccc3c(c2)C2(C4=C(c5nc(C#N)co5)N=C(O4)[C@H](C(C)(C)C)NC1=O)c1ccccc1N[C@H]2O3 (stereo partly drawn) [Compound 68]
[1]
  IC50: 21.1 nM
[2]
  IC50: 59.6 nM

## CCC(C)(C)C(=O)NC1Cc2ccc3c(c2)C2(C4=C(c5nc(C#N)co5)N=C(O4)[C@H](C(C)(C)C)NC1=O)c1ccccc1N[C@H]2O3 (stereo partly drawn) [Compound 69]
[1]
  IC50: 95.5 nM
[2]
  IC50: 225 nM

## COC(=O)c1coc(-c2nc3oc2[C@@]24c5ccccc5NC2Oc2c(Cl)cc(cc24)CC(NC(=O)[C@@H](O)C(C)C)C(=O)N[C@H]3C(C)C)n1 (stereo partly drawn) [Compound 70]
[1]
  IC50: 77 nM
[2]
  IC50: 15 nM

## COC(=O)c1coc(-c2nc3oc2[C@@]24c5ccccc5NC2Oc2c(F)cc(cc24)CC(NC(=O)[C@@H](O)C(C)C)C(=O)N[C@H]3C(C)C)n1 (stereo partly drawn) [Compound 71]
[1]
  IC50: 67 nM
[2]
  IC50: 9.2 nM

## CCCCCCc1cc2cc3c1O[C@@H]1Nc4ccccc4C31c1oc(nc1-c1nc(C(=O)OC)co1)[C@H](C(C)C)NC(=O)[C@@H](NC(=O)[C@@H](O)C(C)C)C2 (stereo partly drawn) [Compound 72]
[1]
  IC50: > 300 nM
[2]
  IC50: 213 nM

## COC(=O)c1coc(-c2nc3oc2C24c5ccccc5N[C@H]2Oc2ccc(cc24)CC[C@H](NC(=O)[C@@H](O)C(C)C)C(=O)N[C@H]3C(C)(C)C)n1 (stereo partly drawn) [Compound 73]
[1]
  IC50: < 0.1 nM
[2]
  IC50: < 0.1 nM

## COC(=O)c1coc(-c2nc3oc2[C@]24c5ccccc5NC2Oc2ccc(cc24)CC[C@H](NC(=O)[C@@H](O)C(C)C)C(=O)N[C@H]3C(C)(C)C)n1 (stereo partly drawn) [Compound 74]
[1]
  IC50: > 100 nM
[2]
  IC50: > 100 nM

## CC(C)[C@H](O)C(=O)N[C@H]1CCc2ccc3c(c2)[C@]2(C4=C(c5nc(CO)co5)N=C(O4)[C@H](C(C)(C)C)NC1=O)c1ccccc1NC2O3 (stereo partly drawn) [Compound 75]
[1]
  IC50: 1.89 nM
[2]
  IC50: 6.55 nM

## COC(=O)c1coc(-c2nc3oc2C24c5cc(ccc5O[C@@H]2N(S(C)(=O)=O)c2ccccc24)C[C@H](NC(=O)[C@@H](O)C(C)C)C(=O)N[C@H]3C(C)C)n1 (stereo partly drawn) [Compound 76]
[1]
  IC50: > 1000 nM
[2]
  IC50: 614 nM

## CC(C)[C@H](O)C(=O)N[C@H]1Cc2ccc3c(c2)C2(C4=C(c5nc(CO)co5)N=C(O4)[C@H](C(C)C)NC1=O)c1ccccc1N(S(C)(=O)=O)[C@H]2O3 (stereo partly drawn) [Compound 77]
[1]
  IC50: > 1000 nM
[2]
  IC50: 777 nM

## COC(=O)c1coc(-c2nc3oc2C24c5cc(ccc5O[C@@H]2N(C)c2ccccc24)C[C@H](NC(=O)[C@@H](O)C(C)C)C(=O)N[C@H]3C(C)C)n1 (stereo partly drawn) [Compound 78]
[1]
  IC50: 114 nM
[2]
  IC50: 17.4 nM

## COC(=O)c1coc(-c2nc3oc2C24c5cc(ccc5O[C@@H]2Nc2c(-c5ccccc5)cccc24)C[C@H](NC(=O)[C@@H](O)C(C)C)C(=O)N[C@H]3C(C)C)n1 (stereo partly drawn) [Compound 79]
[1]
  IC50: 270 nM
[2]
  IC50: 210 nM

## COC(=O)c1coc(-c2nc3oc2C24c5cc(F)ccc5N[C@H]2Oc2ccc(cc24)C[C@H](NC(=O)[C@@H](O)C(C)C)C(=O)N[C@H]3C(C)C)n1 (stereo partly drawn) [Compound 80]
[1]
  IC50: 13.6 nM
[2]
  IC50: 4.07 nM

## CC(C)[C@H](O)C(=O)N[C@H]1Cc2ccc3c(c2)[C@]2(C4=C(c5nc(CO)co5)N=C(O4)[C@H](C(C)C)NC1=O)c1cc(F)ccc1N[C@@H]2O3 [Compound 81]
[1]
  IC50: 55.1 nM
[2]
  IC50: 32.8 nM

## COC(=O)c1coc(-c2nc3oc2C24c5ccc(F)cc5N[C@H]2Oc2ccc(cc24)C[C@H](NC(=O)[C@@H](O)C(C)C)C(=O)N[C@H]3C(C)C)n1 (stereo partly drawn) [Compound 82]
[1]
  IC50: 40.9 nM
[2]
  IC50: 3.4 nM

## CC(C)[C@H](O)C(=O)N[C@H]1Cc2ccc3c(c2)C2(C4=C(c5nc(CO)co5)N=C(O4)[C@H](C(C)C)NC1=O)c1ccc(F)cc1N[C@H]2O3 (stereo partly drawn) [Compound 83]
[1]
  IC50: 184 nM
[2]
  IC50: 60.6 nM

## COC(=O)c1coc(-c2nc3oc2C24c5cc(Cl)ccc5N[C@H]2Oc2ccc(cc24)C[C@H](NC(=O)[C@@H](O)C(C)C)C(=O)N[C@H]3C(C)(C)C)n1 (stereo partly drawn) [Compound 84]
[1]
  IC50: 19.5 nM
[2]
  IC50: 10.1 nM

## CC(C)[C@H](O)C(=O)N[C@H]1Cc2ccc3c(c2)[C@]2(C4=C(c5nc(CO)co5)N=C(O4)[C@H](C(C)(C)C)NC1=O)c1cc(F)ccc1N[C@@H]2O3 [Compound 85]
[1]
  IC50: 0.47 nM
[2]
  IC50: 0.74 nM

## CC(C)[C@H](O)C(=O)N[C@H]1Cc2ccc3c(c2)[C@]2(C4=C(c5nc(C#N)co5)N=C(O4)[C@H](C(C)C)NC1=O)c1cc(F)ccc1N[C@@H]2O3 [Compound 86]
[1]
  IC50: 0.56 nM
[2]
  IC50: 21.8 nM

## CC(C)[C@H](O)C(=O)N[C@H]1Cc2ccc3c(c2)[C@]2(C4=C(c5nc(C#N)co5)N=C(O4)[C@H](C(C)(C)C)NC1=O)c1cc(F)ccc1N[C@@H]2O3 [Compound 87]
[1]
  IC50: < 0.3 nM
[2]
  IC50: 1.9 nM

## COC(=O)c1coc(-c2nc3oc2[C@@]24c5ccccc5NC2Oc2ccc(cc24)C[C@H](N(C)C(=O)[C@@H](O)C(C)C)C(=O)N[C@H]3C(C)C)n1 (stereo partly drawn) [Compound 88]
[1]
  IC50: 0.8 nM
[2]
  IC50: 0.6 nM

## CC(C)[C@H](O)C(=O)N(C)[C@H]1Cc2ccc3c(c2)[C@]2(C4=C(c5nc(CO)co5)N=C(O4)[C@H](C(C)C)NC1=O)c1ccccc1NC2O3 (stereo partly drawn) [Compound 89]
[1]
  IC50: 3 nM
[2]
  IC50: 1 nM

## COC(=O)c1coc(-c2nc3oc2[C@@]24c5ccccc5NC2Oc2ccc(cc24)C[C@H](N(C)C(=O)[C@@H](O)C(C)C)C(=O)N[C@H]3C(C)(C)C)n1 (stereo partly drawn) [Compound 90]
[1]
  IC50: 10.4 nM
[2]
  IC50: 17.1 nM

## CC(C)[C@H](O)C(=O)N(C)[C@H]1Cc2ccc3c(c2)[C@]2(C4=C(c5nc(C#N)co5)N=C(O4)[C@H](C(C)C)NC1=O)c1ccccc1NC2O3 (stereo partly drawn) [Compound 91]
[1]
  IC50: 0.59 nM
[2]
  IC50: 1.97 nM

## COC(=O)c1coc(-c2nc3oc2[C@@]24c5ccccc5NC2Oc2ccc(cc24)C[C@H](NC(=O)[C@@H](O)C(C)C)C(=O)N(C)[C@H]3C(C)C)n1 (stereo partly drawn) [Compound 92]
[1]
  IC50: 113 nM
[2]
  IC50: 69.9 nM

## COC(=O)c1coc(-c2nc3oc2[C@@]24c5ccccc5NC2Oc2ccc(cc24)C[C@H](N(C)C(=O)[C@@H](O)C(C)C)C(=O)N(C)[C@H]3C(C)C)n1 (stereo partly drawn) [Compound 93]
[1]
  IC50: 35.8 nM
[2]
  IC50: 18.6 nM

## COC(=O)c1coc(-c2nc3oc2[C@]24c5ccccc5NC2Oc2ccc(cc24)C[C@H](NC(=O)[C@@H](O)C(C)C)C(=O)N(C)[C@H]3C(C)C)n1 (stereo partly drawn) [Compound 94]
[1]
  IC50: > 300 nM
[2]
  IC50: > 300 nM

## CC(C)[C@H](O)C(=O)N[C@H]1Cc2ccc3c(c2)C2(C4=C(c5nc6cnccc6o5)N=C(O4)[C@H](C(C)C)NC1=O)c1ccccc1N[C@H]2O3 (stereo partly drawn) [Compound 95]
[1]
  IC50: 142 nM
[2]
  IC50: 65 nM

## CC(C)[C@H](O)C(=O)N[C@H]1Cc2ccc3c(c2)[C@]2(C4=C(c5ccccc5)N=C(O4)[C@H](C(C)C)NC1=O)c1ccccc1NC2O3 (stereo partly drawn) [Compound 96]
[1]
  IC50: > 1000 nM
[2]
  IC50: > 1000 nM

## COC(=O)c1csc(-c2nc3oc2C24c5ccccc5N[C@H]2Oc2ccc(cc24)C[C@H](NC(=O)[C@@H](O)C(C)C)C(=O)N[C@H]3C(C)C)n1 (stereo partly drawn) [Compound 97]
[1]
  IC50: 225 nM
[2]
  IC50: 59.5 nM

## CC(C)[C@H](O)C(=O)N[C@H]1Cc2ccc3c(c2)C2(C4=C(c5nc(CO)cs5)N=C(O4)[C@H](C(C)C)NC1=O)c1ccccc1N[C@H]2O3 (stereo partly drawn) [Compound 98]
[1]
  IC50: 284 nM
[2]
  IC50: 231 nM

## COC(=O)c1coc(-c2nc3oc2C24c5ccccc5N[C@H]2Oc2ccc(cc24)C[C@H](NC(=O)[C@@H](O)C(C)C)C(=O)N[C@@H]3C(C)C)n1 (stereo partly drawn) [Compound 99]
[1]
  IC50: > 1000 nM
[2]
  IC50: > 1000 nM

## CC(C)[C@H](O)C(=O)N[C@H]1Cc2ccc3c(c2)[C@]2(C4=C(c5nc(CC(F)(F)F)co5)N=C(O4)[C@H](C(C)C)NC1=O)c1ccccc1NC2O3 (stereo partly drawn) [Compound 100]
[1]
  IC50: 465 nM
[2]
  IC50: 220 nM

## CC(C)c1coc(-c2nc3oc2C24c5ccccc5N[C@H]2Oc2ccc(cc24)C[C@H](NC(=O)[C@@H](O)C(C)C)C(=O)N[C@H]3C(C)C)n1 (stereo partly drawn) [Compound 101]
[1]
  IC50: 684 nM
[2]
  IC50: 500 nM

## COC(=O)c1coc(-c2nc3oc2[C@]24c5ccccc5NC2Oc2ccc(cc24)C[C@H](NC(=O)[C@@H](O)C(C)C)C(=O)N[C@H]3C(C)(C)C)n1 (stereo partly drawn) [Compound 103]
[1]
  IC50: 221 nM
[2]
  IC50: 69 nM

## COC(=O)c1coc(-c2nc3oc2CC/C=C/C[C@H](NC(=O)[C@@H](O)C(C)C)C(=O)N[C@H]3C(C)C)n1 [Compound 104]
[1]
  IC50: > 300 nM
[2]
  IC50: > 300 nM

## COC(=O)c1coc(-c2nc3oc2CCCCC[C@H](NC(=O)[C@@H](O)C(C)C)C(=O)N[C@H]3C(C)C)n1 [Compound 105]
[1]
  IC50: > 300 nM
[2]
  IC50: > 300 nM
